Assay results reported in US20240010913A1, “RED FLUORESCENT SENSOR COMPOUNDS FOR THE DETECTION OF METAL IONS” (FEMTONICS KFT., priority 2020, published 2024).
Entries after “also recorded” stand apart in the source; their conditions may differ.

Tests used:
[1] = cited from earlier work
[2] = cited from earlier work; remark: listed apart in the source
[3] = Solubility of the product (qualitative); format: physicochemical
[4] = Aqueous solution: fluorescence and colour on addition of aqueous 1 mM ZnCl2; format: physicochemical; details: for colour of the aqueous solution / fluorescence of the solution upon irradiation: upon addition of aqueous 1 mM ZnCl2; for fluorescence of the aqueous solution: without Zn
[5] = Fluorescent spectra in the presence of various Zn ion concentration (Zn-titration); format: physicochemical; details: 0.1 M HEPES buffer pH 7.4
Description: (§1) Fluorescent spectra were recorded on an FLS920 Fluorescence Spectrometer from Edinburgh Instrument. A quartz cuvette with 3 mL volume and 1 cm length was used. Absorption spectra were recorded on a ThermoFisher NanoDrop 1000 Spectrophotometer. The two-photon measurements were performed on the custom Femtonics Dobos Dual system using a water immersion lens, a Mai Tai High-Power laser operated at 50 mW. For processing the images, ImageJ software was used.
FIG. 1. Fluorescence spectra of compound 28 pH 7.4 (0.1 M) HEPES buffer containing different amounts of Zn^2+. Values are not normalized, spectra were recorded at the maximum excitation wavelength.
FIG. 5. Fluorescence spectra of the compound of 29 in 0.1 M HEPES buffer (pH 7.4) containing different amounts of Zn^2+.
FIG. 7. Fluorescence spectra of the compound of 31 in pH 7.4 (0.1 M) HEPES buffer containing different amounts of Zn^2+.
FIG. 9. Fluorescence spectra of the compound of 30 in pH 7.4 (0.1 M) HEPES buffer containing different amounts of Zn^2+ ion.

[6] = UV-VIS absorption spectra; format: physicochemical
Description: as §1

[7] = Ion screening (fluorescence), Zn2+; format: physicochemical; details: for selectivity towards Zn ion: vs Ca2+, Mg2+, Na+, K+, Fe3+, Cu2+, Sn2+, Cd2+, Pb2+
[8] = Ion screening (fluorescence), Cd2+; format: physicochemical
[9] = Ion screening (fluorescence), Sn2+; format: physicochemical
[10] = Ion screening (fluorescence), Ca2+; format: physicochemical

Q: With `Oc1cccc2cccnc12` [8-hydroxyquinoline] as the molecule, how does the specificity / selectivity [1] read?
A: low

Q: With `Cc1cc(/C=N/c2cccc3cccnc23)c(O)c(CO)c1` [HQMP] as the molecule, how does the solubility / water-solubility [2] read?
A: Poor water-solubility

Q: For `O=C(CNNC(=O)c1ccccc1)Nc1cccc2cccnc12` [QLNPY], which quenching ([1]; by PPi and S^2−) is on record?
A: quenched by PPi

Q: And the specificity / selectivity [1]?
A: not selective for Cd^2+

Q: For `COc1cc(NS(=O)(=O)c2ccc(C)cc2)c2ncccc2c1` [TSQ, 6-methoxy-(8-p-toluenesulfonamido)quinoline], which solubility / water-solubility [2] is on record?
A: poor water-

Q: With `CCOC(=O)COc1cc(NS(=O)(=O)c2ccc(C)cc2)c2nc(C)ccc2c1` [Zinquin Ester] as the molecule, how does the solubility / water-solubility [2] read?
A: weak solubility; also recorded: excitation, poor water-solubility

Q: What does the source list for `O=C1NC(Nc2ccccc2)=N/C1=C\c1ccc2cccc(O)c2n1` [compound 28, (Z)-5-((8-hydroxyquinolin-2-yl)methylene)-2-(phenylamino)-3,5-dihydro-4H-imidazol-4-one]?
A: solubility in DMSO [3]: Soluble; solubility in alcohols [3]: Soluble; solubility in water [3]: moderately soluble; colour of the aqueous solution [4]: colour changes to yellow; fluorescence of the solution upon irradiation [4]: emits fluorescence; fluorescence of the aqueous solution [4]: emits no fluorescence; maximum emitted wavelength [5]: around 545 nm; UV spectra maximum wavelength [6]: around 472 nm; Stokes shift ([6]; between UV maximum and emission maximum): 73 nm

Q: With `CN(C)c1cccc2ccc(/C=C3\N=C(Nc4ccccc4)NC3=O)nc12` [compound 29, (Z)-5-((8-(dimethylamino)quinolin-2-yl)methylene)-2-(phenylamino)-3,5-dihydro-4H-imidazol-4-one] as the molecule, how does the Zn/Ca fluorescence ratio [7] read?
A: excellent

Q: And the “fluorescence in ion screening” value [7]?
A: strong green fluorescence

Q: And the “selectivity towards Zn ion” value [7]?
A: strong selectivity

Q: What about the “solubility in DMSO” value [3] of the same molecule?
A: Soluble

Q: What about the solubility in alcohols [3] of the same molecule?
A: Soluble

Q: And the solubility in water [3]?
A: Soluble

Q: And the “colour of the aqueous solution” value [4]?
A: colour changes to greenish

Q: And the “fluorescence of the solution upon irradiation” value [4]?
A: emits fluorescence

Q: And the “fluorescence of the aqueous solution” value [4]?
A: emits no fluorescence

Q: What about the “UV spectra extends over” value [6] of the same molecule?
A: over 500 nm

Q: With `CN(C)CCN(C)c1cccc2ccc(/C=C3\N=C(Nc4ccccc4)NC3=O)nc12` [compound 30, (Z)-5-((8-((2-(dimethylamino)ethyl)(methyl)amino)quinolin-2-yl)methylene)-2-(phenylamino)-3,5-dihydro-4H-imidazol-4-one] as the molecule, how does the “fluorescence in ion screening” value [7] read?
A: strong green fluorescence

Q: And the “fluorescence intensity in ion screening” value [7]?
A: lower intensity

Q: And the “selectivity towards Zn ion” value [7]?
A: strong selectivity

Q: And the “solubility in DMSO” value [3]?
A: Soluble

Q: What about the solubility in alcohols [3] of the same molecule?
A: Soluble

Q: And the solubility in water [3]?
A: moderately soluble

Q: What about the “colour of the aqueous solution” value [4] of the same molecule?
A: colour gets brighter

Q: And the “fluorescence of the solution upon irradiation” value [4]?
A: emits fluorescence

Q: What about the “fluorescence of the aqueous solution” value [4] of the same molecule?
A: emits no fluorescence

Q: And the maximum emitted wavelength [5]?
A: around 555 nm

Q: And the “UV spectra extends over” value [6]?
A: over 500 nm

Q: And the “UV spectra maximum wavelength” value [6]?
A: around 476 nm

Q: For `CN(Cc1ccccn1)c1cccc2ccc(/C=C3\N=C(Nc4ccccc4)NC3=O)nc12` [compound 31, (Z)-5-((8-(methyl(pyridin-2-ylmethyl)amino)quinolin-2-yl)methylene)-2-(phenylamino)-3,5-dihydro-4H-imidazol-4-one], which “selectivity against Cd2+” value [8] is on record?
A: weak

Q: And the Zn/Ca fluorescence ratio [7]?
A: good

Q: What about the “fluorescence in ion screening” value [7] of the same molecule?
A: strong green fluorescence

Q: And the “selectivity towards Zn ion” value [7]?
A: good selectivity

Q: What about the “solubility in DMSO” value [3] of the same molecule?
A: Soluble

Q: What about the solubility in alcohols [3] of the same molecule?
A: Soluble

Q: What about the solubility in water [3] of the same molecule?
A: moderately soluble

Q: And the “colour of the aqueous solution” value [4]?
A: colour changes to yellow

Q: What about the “fluorescence of the solution upon irradiation” value [4] of the same molecule?
A: emits fluorescence

Q: What about the “fluorescence of the aqueous solution” value [4] of the same molecule?
A: emits no fluorescence

Q: And the maximum emitted wavelength [5]?
A: around 545 nm

Q: And the “UV spectra extends over” value [6]?
A: over 500 nm

Q: And the “UV spectra maximum wavelength” value [6]?
A: around 481 nm

Q: With `COc1cccc2ccc(/C=C3\N=C(Nc4ccccc4)NC3=O)nc12` [compound 32, (Z)-5-((8-methoxyquinolin-2-yl)methylene)-2-(phenylamino)-3,5-dihydro-4H-imidazol-4-onen] as the molecule, how does the “solubility in DMSO” value [3] read?
A: Soluble

Q: And the solubility in alcohols [3]?
A: Soluble

Q: And the solubility in water [3]?
A: moderately soluble

Q: And the “colour of the aqueous solution” value [4]?
A: colour changes to green

Q: And the “fluorescence of the solution upon irradiation” value [4]?
A: emits fluorescence

Q: And the “fluorescence of the aqueous solution” value [4]?
A: emits no fluorescence

Q: For `O=C(O)CN(CC(=O)O)c1cccc2ccc(/C=C3\N=C(Nc4ccccc4)NC3=O)nc12` [compound 33, (Z)-2,2′-((2-((5-oxo-2-(phenylamino)-1,5-dihydro-4H-imidazol-4-ylidene)methyl)quinolin-8-yl)azanediyl)diacetic acid], which “turn on by Sn2+” value [9] is on record?
A: turn on the sensor

Q: What about the “turn on in the presence of Zn2+” value [7] of the same molecule?
A: does not turn on

Q: What about the “fluorescence with Ca2+ ion” value [10] of the same molecule?
A: increased fluorescence intensity

Q: What does the source list for `O=C1NC(Nc2ccccc2)=N/C1=C\c1ccc2ccc3cccnc3c2n1` [compound 34, (Z)-5-((1,10-phenanthrolin-2-yl)methylene)-2-(phenylamino)-3,5-dihydro-4H-imidazol-4-one]?
A: solubility in DMSO [3]: soluble; solubility in THF [3]: Moderately soluble; solubility in the mixture of DMSO and water [3]: soluble

Q: What does the source list for `O=C1N=C(Nc2ccccc2)N/C1=C\c1ccc2ccc3ccc(/C=C4\NC(Nc5ccccc5)=NC4=O)nc3c2n1` [compound 35, (5Z,5′Z)-5,5′-((1,10-phenanthroline-2,9-diyl)bis(methanylylidene))bis(2-(phenylamino)-1,5-dihydro-4H-imidazol-4-one)]?
A: solubility in DMSO [3]: soluble; solubility in THF [3]: Moderately soluble; solubility in the mixture of DMSO and water [3]: soluble
